# Measured values taken from patent US10597388B2, “Pyridazinone herbicides” (FMC CORPORATION, priority 2014, dated 2020).
# How the values were obtained:
# Format in all cases: in vivo
# [1] = tested on: blackgrass (Alopecurus myosuroides); assay: Test A greenhouse herbicide test, postemergence; settings: for Plant response rating, Blackgrass: 125 g ai/ha, visual rating after approx. 10 d, 0 to 100 scale (0 no effect, 100 complete control); for Blackgrass plant response rating: 500 g ai/ha, 0 to 100 scale, 0 is no effect, 100 is complete control
# Outline: (§1)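 Pot-grown plants (loam soil/sand blend), 2–10 cm tall at the one- to two-leaf stage, received postemergence sprays of formulated test chemical. After about 10 d in the greenhouse, injury was rated visually against untreated controls on a 0 (no effect) to 100 (complete control) scale.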
# [2] = tested on: galium (catchweed bedstraw, Galium aparine); assay: Test A greenhouse herbicide test, postemergence; settings: for Plant response rating, Galium: 125 g ai/ha, visual rating after approx. 10 d, 0 to 100 scale (0 no effect, 100 complete control); for Galium plant response rating: 500 g ai/ha, 0 to 100 scale, 0 is no effect, 100 is complete control
# Outline: as §1
# [3] = tested on: barnyardgrass (Echinochloa crus-galli); assay: Test B flooded paddy test; settings: 250 g ai/ha, Flood; visual rating on scale of 0 to 100 where 0 is no effect and 100 is complete control; 13 to 15 d after treatment
# Outline: (§2)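 Plants grown to the 2-leaf stage. At treatment, pots were flooded to 3 cm above the soil, compound was applied directly to the paddy water, and that depth was held throughout. After 13 to 15 d in the greenhouse, response was rated visually against controls on a 0 (no effect) to 100 (complete control) scale.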
# [4] = tested on: ducksalad (Heteranthera limosa); assay: Test B flooded paddy test; settings: 250 g ai/ha, Flood; visual rating on scale of 0 to 100 where 0 is no effect and 100 is complete control; 13 to 15 d after treatment
# Outline: as §2
# rice (Oryza sativa) = assay: Test B flooded paddy test; settings: 250 g ai/ha, Flood; visual rating on scale of 0 to 100 where 0 is no effect and 100 is complete control; 13 to 15 d after treatment
# Outline: as §2
# [5] = tested on: sedge, umbrella (small-flower umbrella sedge, Cyperus difformis); assay: Test B flooded paddy test; settings: 250 g ai/ha, Flood; visual rating on scale of 0 to 100 where 0 is no effect and 100 is complete control; 13 to 15 d after treatment
# Outline: as §2
# [6] = tested on: johnsongrass (Sorghum halepense); assay: Test C greenhouse herbicide test, pre- and postemergence
# Outline: (§3)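 Visual ratings on a 0 to 100 scale (0 = no effect, 100 = complete control) versus untreated controls, scored 13–15 d after treatment. Soil-applied preemergence to seeded loam/sand; foliar postemergence to 1- to 4-leaf plants (2–18 cm) in peat-vermiculite mix; compounds formulated in solvent plus surfactant.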
# [7] = tested on: pigweed (Amaranthus retroflexus); assay: as above
# Outline: as §3
# [8] = tested on: wheat (winter wheat, Triticum aestivum); assay: as above
# Outline: as §3
# [9] = tested on: chickweed (common chickweed, Stellaria media); assay: Test C greenhouse herbicide test, postemergence
# Outline: (§4)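 Plants grown in potting mix of peat moss, vermiculite, wetting agent and starter nutrients were sprayed postemergence at 2 to 18 cm height (1- to 4-leaf stage). After 13 to 15 d in the greenhouse, injury was visually rated against untreated controls on a 0–100 scale (0 no effect, 100 complete control).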
# kochia (Kochia scoparia) = assay: Test C greenhouse herbicide test, postemergence
# Outline: as §4
# [10] = tested on: oat, wild (wild oat, Avena fatua); assay: Test C greenhouse herbicide test, postemergence
# Outline: as §4
# [11] = Postemergence, 31 g ai/ha, 0 to 100 scale (0 no effect, 100 complete control)
# [12] = Postemergence, 125 g ai/ha, scale 0 to 100, 0 is no effect, 100 is complete control
# [13] = Postemergence, 250 g ai/ha, scale 0 to 100, 0 no effect, 100 complete control, 13 to 15 d
# [14] = Preemergence, 31 g ai/ha, scale 0 to 100, 0 is no effect, 100 is complete control
# [15] = Preemergence, 62 g ai/ha, scale 0 to 100, 0 is no effect, 100 is complete control
# [16] = Preemergence, 125 g ai/ha, scale 0 to 100, 0 is no effect, 100 is complete control
# [17] = Preemergence, 250 g ai/ha, scale 0 to 100, 0 no effect, 100 complete control
# [18] = postemergence, 62 g ai/ha, scale 0 to 100, 0 no effect, 100 complete control
smiles,measurement,setting,value
Cn1nc(Br)c(O)c(-c2cccc3ccccc23)c1=O [Compound 20],"Plant response rating, Blackgrass",[1],30
same,Blackgrass plant response rating,[1],40
same,"Plant response rating, Galium",[2],90
same,Galium plant response rating,[2],100
same,"Plant response rating, Barnyardgrass",[3],0
same,"Plant response rating, Ducksalad",[4],50
same,"Plant response rating, Rice",rice (Oryza sativa),0
same,"Plant response rating, Sedge, Umbrella",[5],50
same,Johnsongrass plant response rating,[6]; [11],5
same,"Plant response rating, Johnsongrass",[6]; [12],10
same,"Plant response rating, Johnsongrass",[6]; [13],10
same,"Plant response rating, Johnsongrass",[6]; [14],0
same,"Plant response rating, Johnsongrass",[6]; [15],0
same,"Plant response rating, Johnsongrass",[6]; [16],0
same,Johnsongrass plant response rating,[6]; [17],10
same,Johnsongrass plant response rating,[6]; [18],10
same,Pigweed plant response rating,[7]; [11],75
same,"Plant response rating, Pigweed",[7]; [12],98
same,"Plant response rating, Pigweed",[7]; [13],100
same,"Plant response rating, Pigweed",[7]; [14],100
same,"Plant response rating, Pigweed",[7]; [15],100
same,"Plant response rating, Pigweed",[7]; [16],100
same,Pigweed plant response rating,[7]; [17],100
same,Pigweed plant response rating,[7]; [18],90
same,Wheat plant response rating,[8]; [11],0
same,"Plant response rating, Wheat",[8]; [12],0
same,"Plant response rating, Wheat",[8]; [13],0
same,"Plant response rating, Wheat",[8]; [15],0
same,"Plant response rating, Wheat",[8]; [16],35
same,Wheat plant response rating,[8]; [17],30
same,Wheat plant response rating,[8]; [18],0
same,Chickweed plant response rating,[9]; [11],90
same,"Plant response rating, Chickweed",[9]; [12],100
same,"Plant response rating, Chickweed",[9]; [13],100
same,Chickweed plant response rating,[9]; [18],98
same,Kochia plant response rating,kochia (Kochia scoparia); [11],50
same,"Plant response rating, Kochia",kochia (Kochia scoparia); [12],90
same,"Plant response rating, Kochia",kochia (Kochia scoparia); [13],100
same,Kochia plant response rating,kochia (Kochia scoparia); [18],80
same,"Oat, Wild plant response rating",[10]; [11],0
same,"Plant response rating, Oat, Wild",[10]; [12],25
same,"Plant response rating, Oat, Wild",[10]; [13],40
same,"Oat, Wild plant response rating",[10]; [18],5
Cc1cc(C)c2ccccc2c1-c1c(O)c(C)nn(C)c1=O [Compound 21],"Plant response rating, Blackgrass",[1],90
same,Blackgrass plant response rating,[1],90
same,"Plant response rating, Galium",[2],100
same,Galium plant response rating,[2],100
same,"Plant response rating, Barnyardgrass",[3],70
same,"Plant response rating, Ducksalad",[4],0
same,"Plant response rating, Rice",rice (Oryza sativa),55
same,"Plant response rating, Sedge, Umbrella",[5],65
same,Johnsongrass plant response rating,[6]; [11],10
same,"Plant response rating, Johnsongrass",[6]; [12],20
same,"Plant response rating, Johnsongrass",[6]; [13],35
same,"Plant response rating, Johnsongrass",[6]; [14],10
same,"Plant response rating, Johnsongrass",[6]; [15],10
same,"Plant response rating, Johnsongrass",[6]; [16],35
same,Johnsongrass plant response rating,[6]; [17],50
same,Johnsongrass plant response rating,[6]; [18],20
same,Pigweed plant response rating,[7]; [11],70
same,"Plant response rating, Pigweed",[7]; [12],95
same,"Plant response rating, Pigweed",[7]; [13],98
same,"Plant response rating, Pigweed",[7]; [14],100
same,"Plant response rating, Pigweed",[7]; [15],100
same,"Plant response rating, Pigweed",[7]; [16],100
same,Pigweed plant response rating,[7]; [17],100
same,Pigweed plant response rating,[7]; [18],95
same,Wheat plant response rating,[8]; [11],0
same,"Plant response rating, Wheat",[8]; [12],35
same,"Plant response rating, Wheat",[8]; [13],35
same,"Plant response rating, Wheat",[8]; [15],5
same,"Plant response rating, Wheat",[8]; [16],30
same,Wheat plant response rating,[8]; [17],40
same,Wheat plant response rating,[8]; [18],5
same,Chickweed plant response rating,[9]; [11],95
same,"Plant response rating, Chickweed",[9]; [12],100
same,"Plant response rating, Chickweed",[9]; [13],100
same,Chickweed plant response rating,[9]; [18],100
same,Kochia plant response rating,kochia (Kochia scoparia); [11],80
same,"Plant response rating, Kochia",kochia (Kochia scoparia); [12],95
same,"Plant response rating, Kochia",kochia (Kochia scoparia); [13],100
same,Kochia plant response rating,kochia (Kochia scoparia); [18],90
same,"Oat, Wild plant response rating",[10]; [11],90
same,"Plant response rating, Oat, Wild",[10]; [12],98
same,"Plant response rating, Oat, Wild",[10]; [13],100
same,"Oat, Wild plant response rating",[10]; [18],98
Cc1nn(C)c(=O)c(-c2c(C)sc3ccc(Br)cc23)c1O [Compound 22],"Plant response rating, Blackgrass",[1],50
same,Blackgrass plant response rating,[1],70
same,"Plant response rating, Galium",[2],90
same,Galium plant response rating,[2],100
same,"Plant response rating, Barnyardgrass",[3],0
same,"Plant response rating, Ducksalad",[4],0
same,"Plant response rating, Rice",rice (Oryza sativa),0
same,"Plant response rating, Sedge, Umbrella",[5],0
same,Johnsongrass plant response rating,[6]; [11],5
same,"Plant response rating, Johnsongrass",[6]; [12],5
same,"Plant response rating, Johnsongrass",[6]; [13],5
same,"Plant response rating, Johnsongrass",[6]; [14],0
same,"Plant response rating, Johnsongrass",[6]; [15],0
same,"Plant response rating, Johnsongrass",[6]; [16],0
same,Johnsongrass plant response rating,[6]; [17],0
same,Johnsongrass plant response rating,[6]; [18],5
same,Pigweed plant response rating,[7]; [11],85
same,"Plant response rating, Pigweed",[7]; [12],90
same,"Plant response rating, Pigweed",[7]; [13],98
same,"Plant response rating, Pigweed",[7]; [14],60
same,"Plant response rating, Pigweed",[7]; [15],100
same,"Plant response rating, Pigweed",[7]; [16],100
same,Pigweed plant response rating,[7]; [17],100
same,Pigweed plant response rating,[7]; [18],75
same,Wheat plant response rating,[8]; [11],0
same,"Plant response rating, Wheat",[8]; [12],5
same,"Plant response rating, Wheat",[8]; [13],0
same,"Plant response rating, Wheat",[8]; [15],0
same,"Plant response rating, Wheat",[8]; [16],0
same,Wheat plant response rating,[8]; [17],0
same,Wheat plant response rating,[8]; [18],0
same,Chickweed plant response rating,[9]; [11],90
same,"Plant response rating, Chickweed",[9]; [12],95
same,"Plant response rating, Chickweed",[9]; [13],98
same,Chickweed plant response rating,[9]; [18],90
same,Kochia plant response rating,kochia (Kochia scoparia); [11],90
same,"Plant response rating, Kochia",kochia (Kochia scoparia); [12],95
same,"Plant response rating, Kochia",kochia (Kochia scoparia); [13],95
same,Kochia plant response rating,kochia (Kochia scoparia); [18],95
same,"Oat, Wild plant response rating",[10]; [11],40
same,"Plant response rating, Oat, Wild",[10]; [12],80
same,"Plant response rating, Oat, Wild",[10]; [13],80
same,"Oat, Wild plant response rating",[10]; [18],50
Cc1ccc2ccccc2c1-c1c(O)c(Br)nn(C)c1=O [Compound 23],"Plant response rating, Blackgrass",[1],70
same,Blackgrass plant response rating,[1],80
same,"Plant response rating, Galium",[2],100
same,Galium plant response rating,[2],100
same,"Plant response rating, Barnyardgrass",[3],0
same,"Plant response rating, Ducksalad",[4],75
same,"Plant response rating, Rice",rice (Oryza sativa),0
same,"Plant response rating, Sedge, Umbrella",[5],95
same,Johnsongrass plant response rating,[6]; [11],5
same,"Plant response rating, Johnsongrass",[6]; [12],10
same,"Plant response rating, Johnsongrass",[6]; [13],40
same,"Plant response rating, Johnsongrass",[6]; [14],5
same,"Plant response rating, Johnsongrass",[6]; [15],5
same,"Plant response rating, Johnsongrass",[6]; [16],35
same,Johnsongrass plant response rating,[6]; [17],35
same,Johnsongrass plant response rating,[6]; [18],5
same,Pigweed plant response rating,[7]; [11],90
same,"Plant response rating, Pigweed",[7]; [12],98
same,"Plant response rating, Pigweed",[7]; [13],98
same,"Plant response rating, Pigweed",[7]; [14],100
same,"Plant response rating, Pigweed",[7]; [15],100
same,"Plant response rating, Pigweed",[7]; [16],100
same,Pigweed plant response rating,[7]; [17],100
same,Pigweed plant response rating,[7]; [18],98
same,Wheat plant response rating,[8]; [11],10
same,"Plant response rating, Wheat",[8]; [12],35
same,"Plant response rating, Wheat",[8]; [13],30
same,"Plant response rating, Wheat",[8]; [15],85
same,"Plant response rating, Wheat",[8]; [16],90
same,Wheat plant response rating,[8]; [17],90
same,Wheat plant response rating,[8]; [18],30
same,Chickweed plant response rating,[9]; [11],100
same,"Plant response rating, Chickweed",[9]; [12],100
same,"Plant response rating, Chickweed",[9]; [13],100
same,Chickweed plant response rating,[9]; [18],100
same,Kochia plant response rating,kochia (Kochia scoparia); [11],95
same,"Plant response rating, Kochia",kochia (Kochia scoparia); [12],100
same,"Plant response rating, Kochia",kochia (Kochia scoparia); [13],100
same,Kochia plant response rating,kochia (Kochia scoparia); [18],95
same,"Oat, Wild plant response rating",[10]; [11],85
same,"Plant response rating, Oat, Wild",[10]; [12],100
same,"Plant response rating, Oat, Wild",[10]; [13],100
same,"Oat, Wild plant response rating",[10]; [18],95
